Values of other authors as cited in patent US20240170163A1, “SYSTEMS AND METHODS FOR DETECTING NEW DRUG PROPERTIES IN TARGET-BASED DRUG-DRUG SIMILARITY NETWORKS” (priority 2021, published 2024).

Key:
[1] = tested on: dendritic cells
[2] = tested on: Candida albicans; conditions: in vitro
[3] = tested on: Klebsiella pneumoniae; conditions: in vitro
[4] = tested on: breast cancer
[5] = tested on: Candida; conditions: liquid formulation, in vitro
[6] = tested on: chronic lymphocytic leukemia (CLL)
[7] = tested on: prostate carcinoma cells; conditions: in vitro
[8] = tested on: PR-transfected MDA-MB-231 cells

With `N=C(N)NC(=O)c1nc(Cl)c(N)nc1N` [Amiloride] as the molecule, how does the “activation of the dendritic cells” value [1] read?
The value was “inhibits the activation”.

And the inflammation ([1]; besides its diuretic effects)?
Its inflammation is “ameliorates the inflammation”.

Which results are given for `COC(F)(F)C(Cl)Cl` [Methoxyflurane]?
inhibitory effects on cultures of Candida albicans [2]: excellent inhibitory effects; inhibitory effects on cultures of Klebsiella pneumoniae [3]: excellent inhibitory effects

With `CCN(CC)CCCC(C)Nc1c2ccc(Cl)cc2nc2ccc(OC)cc12` (stereo not shown) [Quinacrine] as the molecule, how does the “DNA damage in breast cancer” value [4] read?
The value was “induces DNA damage”.

What about the “apoptosis / cell cycle effect in breast cancer” value [4] of the same molecule?
The value was “produces apoptosis by blocking cells in S-phase”.

What about the “topoisomerase activity in breast cancer” value [4] of the same molecule?
The value was “inhibits topoisomerase activity”.

Which results are given for `FC(F)OC(Cl)C(F)(F)F` (stereo not shown) [Isoflurane]?
inhibitory effects on cultures of Candida albicans [2]: excellent inhibitory effects; anti-Candida activity compared with Amphotericin B [5]: better anti-Candida activity; inhibitory effects on cultures of Klebsiella pneumoniae [3]: excellent inhibitory effects

For `COc1cc([C@@H]2c3cc4c(cc3[C@H](O)[C@H]3COC(=O)[C@H]23)OCO4)cc(OC)c1OC` [Podofilox], which “cytotoxicity in chronic lymphocytic leukemia (CLL)” value [6] is on record?
The value was “potent cytotoxic agent”.

With `NC(Cn1ccc(=O)c(O)c1)C(=O)O` (stereo not shown) [Mimosine] as the molecule, how does the “cell proliferation of prostate carcinoma cells” value [7] read?
Its value is “attenuates cell proliferation”.

With `CC(=O)[C@H]1CC[C@H]2[C@@H]3CCC4=CC(=O)CC[C@]4(C)[C@H]3CC[C@]12C` [Progesterone] as the molecule, how does the “expression of genes involved in cell proliferation and metastasis” value [8] read?
Its value is “suppressed the expression”.
